# Experimental data reported in ChEMBL document CHEMBL3351345, “Design, synthesis, and structure-activity relationships of novel benzothiazole derivatives bearing the ortho-hydroxy N-carbamoylhydrazone moiety as potent antitumor agents” (Eur J Med Chem, 2014).
# Assays:
# HT-29 = assay: Antiproliferative activity against human HT-29 cells after 72 hrs by MTT assay; type: functional, cell-based; details: HT-29, 72 h
# MDA-MB-231 = assay: Antiproliferative activity against human MDA-MB-231 cells after 72 hrs by MTT assay; details: MDA-MB-231, 72 h
# NCI-H226 = assay: Antiproliferative activity against human NCI-H226 cells after 72 hrs by MTT assay; type: functional, cell-based; details: NCI-H226, 72 h
# [1] = Antiproliferative activity against human MKN45 cells after 72 hrs by MTT assay; type: functional, cell-based; details: MKN-45, 72 h
# SK-N-SH = assay: Antiproliferative activity against human SK-N-SH cells after 72 hrs by MTT assay; type: functional, cell-based
# Caspase-3 = biological target: T1, Caspase-3 (Homo sapiens, UniProt P42574); assay: Induction of procaspase 3 activity (unknown origin) using Ac-DEVD-pNa as substrate after 2 hrs
# T1 sequence (P42574 whole entry): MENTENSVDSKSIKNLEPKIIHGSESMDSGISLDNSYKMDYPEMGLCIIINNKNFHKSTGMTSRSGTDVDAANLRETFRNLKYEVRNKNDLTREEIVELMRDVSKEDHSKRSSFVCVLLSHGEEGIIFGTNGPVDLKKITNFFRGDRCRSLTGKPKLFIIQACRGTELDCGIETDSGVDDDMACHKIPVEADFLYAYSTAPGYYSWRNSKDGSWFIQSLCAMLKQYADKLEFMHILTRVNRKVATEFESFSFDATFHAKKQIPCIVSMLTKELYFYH
# Caspase-3 (Homo sapiens) = biological target: T2, Caspase-3 (Homo sapiens) (UniProt P42574); assay: Ratio of PAC1 EC50 to compound EC50 for procaspase 3 activity (unknown origin)
# T2 sequence (whole entry): T1 sequence (P42574 whole entry)
SMILES,IC50 (HT-29) [µM],IC50 (MDA-MB-231) [µM],IC50 (NCI-H226) [µM],IC50 (SK-N-SH) [µM],EC50 (Caspase-3) [µM],Ratio EC50 (Caspase-3 (Homo sapiens)),IC50 [1] [µM]
O=C(N/N=C/c1ccc(OCc2csc(Cc3ccc4c(c3)OCO4)n2)cc1O)Nc1nc2ccc(N3CCOCC3)cc2s1,2.31,4.03,2.14,6.21,–,–,1.01
CN(C)Cc1ccc2nc(NC(=O)N/N=C/c3ccc(O)cc3O)sc2c1,77.9,> 100,2.98,14.3,–,–,2.85
CCN(CC)Cc1ccc2nc(NC(=O)N/N=C/c3ccc(OCc4ccc(C)cc4)cc3O)sc2c1,1.33,0.71,1.01,1.43,–,–,0.58
CCN(CC)Cc1ccc2nc(NC(=O)N/N=C/c3ccc(OCc4ccc(C(C)(C)C)cc4)cc3O)sc2c1,0.77,0.98,0.16,0.48,1.42,2.9,0.5
CCN(CC)Cc1ccc2nc(NC(=O)N/N=C/c3ccc(OCc4csc(Cc5ccc6c(c5)OCO6)n4)cc3O)sc2c1,0.72,0.55,0.14,0.48,0.25,16,0.51
CCN(CC)Cc1ccc2nc(NC(=O)N/N=C/c3ccc(O)cc3O)sc2c1,23.7,4.11,5.16,6.05,–,–,1.74
O=C(N/N=C/c1ccccc1O)Nc1nc2ccc(N3CCOCC3)cc2s1,67.9,> 100,4.26,11.7,–,–,9.31
CCN(CC)Cc1ccc2nc(NC(=O)N/N=C/c3ccc(OCc4ccc(Cl)cc4)cc3O)sc2c1,1.02,0.61,0.43,0.74,4.96,–,0.54
CC(C)(C)c1ccc(COc2ccc(/C=N/NC(=O)Nc3nc4ccc(N5CCOCC5)cc4s3)c(O)c2)cc1,0.92,1.04,0.24,0.92,18.2,–,0.46
CN(C)Cc1ccc2nc(NC(=O)N/N=C/c3ccccc3O)sc2c1,5.96,5.95,2.03,5.14,–,–,1.54
C=CCc1cccc(/C=N/NC(=O)CN2CCN(Cc3ccccc3)CC2)c1O [PAC-1],1.36,4.8,1.02,3.06,4.08,–,2.61
CCN(CC)Cc1ccc2nc(NC(=O)N/N=C/c3ccccc3O)sc2c1,4.03,11.3,1.81,5.79,–,–,1.71
Cc1ccc(COc2ccc(/C=N/NC(=O)Nc3nc4ccc(CN(C)C)cc4s3)c(O)c2)cc1,2.13,2.65,1.08,2.58,–,–,1.27
CN(C)Cc1ccc2nc(NC(=O)N/N=C/c3ccc(OCc4ccc(C(C)(C)C)cc4)cc3O)sc2c1,1.51,1.14,0.83,1.66,–,–,1.04
CN(C)Cc1ccc2nc(NC(=O)N/N=C/c3ccc(OCc4csc(Cc5ccc6c(c5)OCO6)n4)cc3O)sc2c1,1.88,1.04,0.72,0.79,–,–,0.62

# The next lines start with results.
IC50 (HT-29) [µM],IC50 (MDA-MB-231) [µM],IC50 (NCI-H226) [µM],IC50 (SK-N-SH) [µM],EC50 (Caspase-3) [µM],Ratio EC50 (Caspase-3 (Homo sapiens)),SMILES,IC50 [1] [µM]
10.3,12,2.71,7.05,–,–,O=C(N/N=C/c1ccccc1O)Nc1nc2ccc(CN3CCOCC3)cc2s1,2.34
2.94,0.54,0.36,1.19,–,–,CN(C)Cc1ccc2nc(NC(=O)N/N=C/c3ccc(OCc4cccc(Cl)c4)cc3O)sc2c1,0.19
1.88,0.57,1.3,1.83,–,–,CCN(CC)Cc1ccc2nc(NC(=O)N/N=C/c3ccc(OCc4cccc(Cl)c4)cc3O)sc2c1,0.42
2.43,1.52,0.7,1.04,–,–,CCN(CC)Cc1ccc2nc(NC(=O)N/N=C/c3ccc(OCc4ccc(Cl)cc4Cl)cc3O)sc2c1,0.52
1.58,19.3,0.53,2.51,–,–,Cc1ccc(COc2ccc(/C=N/NC(=O)Nc3nc4ccc(N5CCOCC5)cc4s3)c(O)c2)cc1,0.75
0.95,0.88,0.41,1.06,–,–,CC1CCN(Cc2ccc3nc(NC(=O)N/N=C/c4ccc(OCc5ccc(Cl)cc5)cc4O)sc3c2)CC1,0.21
2.73,1.66,4.61,7.74,–,–,CC1CCN(Cc2ccc3nc(NC(=O)N/N=C/c4ccc(O)cc4O)sc3c2)CC1,4.09
0.59,1.18,0.79,1.48,–,–,O=C(N/N=C/c1ccc(OCc2cccc(Cl)c2)cc1O)Nc1nc2ccc(N3CCOCC3)cc2s1,0.28
0.0018,4.46,0.26,1.37,–,–,O=C(N/N=C/c1ccc(OCc2ccc(Cl)cc2)cc1O)Nc1nc2ccc(N3CCOCC3)cc2s1,0.29
1.61,0.68,0.58,2.94,–,–,CN(C)Cc1ccc2nc(NC(=O)N/N=C/c3ccc(OCc4ccccc4Cl)cc3O)sc2c1,0.33
1.04,1.51,1.06,1.56,–,–,Cc1ccc(COc2ccc(/C=N/NC(=O)Nc3nc4ccc(CN5CCC(C)CC5)cc4s3)c(O)c2)cc1,0.31
2.23,0.74,0.56,2.01,–,–,CCN(CC)Cc1ccc2nc(NC(=O)N/N=C/c3ccc(OCc4ccccc4Cl)cc3O)sc2c1,0.42
1.57,–,0.61,1.32,–,–,CC1CCN(Cc2ccc3nc(NC(=O)N/N=C/c4ccc(OCc5ccccc5)cc4O)sc3c2)CC1,–
10.4,12.3,2.96,4.36,–,–,CC1CCN(Cc2ccc3nc(NC(=O)N/N=C/c4ccccc4O)sc3c2)CC1,0.68
2.15,0.6,1.17,2.74,–,–,CN(C)Cc1ccc2nc(NC(=O)N/N=C/c3ccc(OCc4ccc(Cl)cc4)cc3O)sc2c1,0.7
0.87,0.56,0.18,0.27,2.42,–,CC1CCN(Cc2ccc3nc(NC(=O)N/N=C/c4ccc(OCc5ccc(C(C)(C)C)cc5)cc4O)sc3c2)CC1,0.17
1,0.3,0.39,1.03,–,–,CC1CCN(Cc2ccc3nc(NC(=O)N/N=C/c4ccc(OCc5ccc(Cl)cc5Cl)cc4O)sc3c2)CC1,0.28
1.03,2.3,0.79,0.85,–,–,CC1CCN(Cc2ccc3nc(NC(=O)N/N=C/c4ccc(OCc5ccccc5Cl)cc4O)sc3c2)CC1,0.76
1.12,0.88,0.81,1.25,–,–,CC1CCN(Cc2ccc3nc(NC(=O)N/N=C/c4ccc(OCc5csc(Cc6ccc7c(c6)OCO7)n5)cc4O)sc3c2)CC1,0.55
1.44,–,0.88,1.67,–,–,CCN(CC)Cc1ccc2nc(NC(=O)N/N=C/c3ccc(OCc4ccccc4)cc3O)sc2c1,–
1.72,1.12,0.36,0.34,4.26,–,CC1CCN(Cc2ccc3nc(NC(=O)N/N=C/c4ccc(OCc5cccc(Cl)c5)cc4O)sc3c2)CC1,0.67
4.72,15.1,1.22,3.14,–,–,O=C(N/N=C/c1ccc(OCc2ccc(Cl)cc2Cl)cc1O)Nc1nc2ccc(N3CCOCC3)cc2s1,1.75
